Measurements as given in patent US9290427B2, “Anti-invasive compounds” (Universiteit Gent, priority 2012, dated 2016).

What was measured:
[1] = system: MCF-7/6 cells; test: MTT test, MCF-7/6; assay type: cell-based, human; details: for decrease in mitochondrial activity: FIG. 5
Procedure: An MTT test provides an indication of cell viability, proliferation and activity through determination of the mitochondrial conversion of 3-(4,5-dimethylthiazol-2-yl)-2,5-diphenyltetrazolium bromide (MTT), a yellow salt, into formazan, a salt that precipitates under the form of blue crystals.
In concreto, 5,000 cells are seeded in a cup of a 96 well-plate, treated with the desired amount of the test substance, and incubated for a chosen period of time. Next, 40 μL of a filtered (0.2 μm) 5 mg·mL^−1 solution of MTT in PBS is added to the cup. After 2 h of incubation at 37° C. in the dark, all liquid is removed. The obtained formazan salts are dissolved in 200 μL of DMSO, whereupon optical density is measured at 490 nm.
The effects of some chalcone-like compounds on the proliferation of MCF-7/6 cells were investigated. A commonly used method to quantify the metabolic activity of cells and thus to a certain degree cell viability—is the MTT assay. This test provides a measure of mitochondrial activity, as it assesses the reduction of 3-(4,5-dimethylthiazol-2-yl)-2,5-diphenyltetrazolium bromide (MTT), a yellow tetrazole, to the purple formazan; this transformation occurs in the mitochondria of living cells (Mosmann T., 1983).
Thus, the influence of 13 compounds on the mitochondrial activity of MCF-7/6 cells was determined at 3 different concentrations, both after 24 and 48 h of incubation. Assessment of the mitochondrial activity after 192 h of incubation, which would correspond to the duration of the CHI assay, was not possible as the degree of confluence of the cells was too high at that time point.
The antiproliferative effects of 4-fluoro-3′,4′,5′-trimethoxychalcone on MCF-7/6 cells were further assessed in the MTT assay upon prolonged incubation, as this would provide a higher degree of relevance to the CHI assay, which has an 8-day incubation period. As mentioned above, cell confluence was too high after 192 h; therefore, an incubation time of 144 h was considered a good compromise.

[2] = system: CT5.3 myofibroblasts; test: SRB test, CT5.3; assay type: cell-based, human; details: 10 μmol·L−1, 24 h, decreasing trend, not significant
Procedure: The SRB assay is used to evaluate growth effects on cells, and measures the total protein content. In this test, 5,000 cells are seeded in a cup of a 96-well plate. Upon a 24 h-attachment period, cells are treated with a certain amount of the test molecule (dissolved in DMSO). After a pre-chosen incubation time, cells are fixed with 50 μL of 50% trichloroacetic acid (2° C., 1 h). Afterward, the plate is rinsed five times with tap water, and air dried overnight.
Next, proteins are stained with 75 μL of a 0.4% solution of SRB in AcOH (30 min). Unbound SRB is subsequently removed by washing with a 1% solution of glacial AcOH, whereupon the plate is air dried. Then, bound SRB is redissolved in 100 μL of a 10 mmol·L^−1 tris(hydroxymethyl)aminomethane (Tris) buffer (pH=10.5), after which optical density is determined at 490 nm with a spectrophotometer.
In order to verify whether the antiproliferative effects of compound 49, witnessed in BLM and MCF-7/6 cells at high concentrations, were cell specific, additional SRB and MTT assays on a further five cell lines (HCT8-E11, TR146, FaDu, 3T3-L1 and CT5.3) were conducted (FIG. 8). The results for MCF-7/6 cells were added to facilitate comparison.
The CT5.3 cell line consists of human myofibroblasts which were isolated from a colon tumor (Van Hoorde et al., 1999). […]

SMILES: COc1cc(C(=O)/C=C/c2ccc(F)cc2)cc(OC)c1OC [Compound 49, (2E)-3-(4-Fluorophenyl)-1-(3,4,5-trimethoxyphenyl)propenone]
- mitochondrial activity relative to solvent control ([1]; 0.1 μmol·L−1, FIG. 6): increased significantly
- mitochondrial activity ([1]; 1 μmol·L−1, 24 h): the same trend, but without significance
- decrease in mitochondrial activity ([1]; 5 μmol·L−1, 24 h): 35%
- decrease in mitochondrial activity ([1]; 5 μmol·L−1, 48 h): 25%
- reduction in mitochondrial activity ([1]; 10 μmol·L−1, 24 h): 40%
- mitochondrial activity relative to solvent control ([1]; 100 and 10 μmol·L−1, FIG. 6 (72 and 144 h), p<0.01): significant reduction
- reduction in mitochondrial activity ([1]; elevated concentrations 10-100 μmol·L−1, summary): ~50%
- change in total protein content [2]: −15%
